The assay concerns the target T1, Recombinant human CBP containing the bromodomain (CBP-BD (1043-1159)) (Homo sapiens, UniProt Q92793).
T1 construct: Recombinant human CBP bromodomain (CBP-BD (1043-1159)); made in house; host or cells: E. coli BL21-CodonPlus (DE3), modified pET vector
The experiment in a line: CBP Alphascreen binding assay. Particulars: read-out: CREBBP (CBP) IC50. In outline: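 Buffer: 50 mM HEPES pH 7.5, 50 mM NaCl, 0.01% BSA, 0.01% Triton X-100, 2 mM DTT. The signal was normalised to plate controls and fitted with a four-parameter curve to give IC50.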
In general terms: Bead proximity is the source of the signal in Alpha formats.

The record followed here is patent US11446287B2, “Compounds and methods for EP300 or CBP modulation and indications therefor” (Opna Immuno-Oncology SA, priority 2019, dated 2022).

As usually defined, the IC50 is the point on the concentration scale where inhibition reaches its midpoint.

T1 sequence (Q92793 1081-1197): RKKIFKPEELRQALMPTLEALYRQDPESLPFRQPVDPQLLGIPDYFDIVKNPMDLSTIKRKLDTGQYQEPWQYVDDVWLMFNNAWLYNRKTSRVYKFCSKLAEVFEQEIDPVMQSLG

As for `Cc1noc(C)c1-c1cnc2c(c1)c(-c1ccc(C(=O)O)cc1OC(F)(F)F)cn2-c1ncccc1C#N` [P-0215, 4-(1-(3-cyanopyridin-2-yl)-5-(3,5-dimethylisoxazol-4-yl)-1H-pyrrolo[2,3-b]pyridin-3-yl)-3-(trifluoromethoxy)benzoic acid], the concentration for half-maximal inhibition (IC50) fell in the range of 0.1 to 1000 nM.
Then `Cc1noc(C)c1-c1cnc2c(c1)c(-c1ccc(C(=O)O)cc1OC(F)(F)F)cn2-c1ncccc1C#CC1CC1` [P-0216, 4-(1-(3-(cyclopropylethynyl)pyridin-2-yl)-5-(3,5-dimethylisoxazol-4-yl)-1H-pyrrolo[2,3-b]pyridin-3-yl)-3-(trifluoromethoxy)benzoic acid], with 0.1 to 1000 nM; and `CCOc1cc(C(=O)O)cc(OCC)c1-n1cc(-c2ccc(C#N)cc2F)c2ncc(-c3c(C)noc3C)cc21` [P-0217, 4-(3-(4-cyano-2-fluorophenyl)-6-(3,5-dimethylisoxazol-4-yl)-1H-pyrrolo[3,2-b]pyridin-1-yl)-3,5-diethoxybenzoic acid], with 0.1 to 1000 nM; and `CCOc1cc(C(=O)O)cc(OCC)c1-n1cc(-c2ccc(C(=O)NC3CC3)cc2)c2ncc(-c3c(C)noc3C)cc21` [P-0218, 4-(3-(4-(cyclopropylcarbamoyl)phenyl)-6-(3,5-dimethylisoxazol-4-yl)-1H-pyrrolo[3,2-b]pyridin-1-yl)-3,5-diethoxybenzoic acid], with 0.1 to 1000 nM.
In the case of `COC(=O)c1cc(OC)c(-n2cc(-c3ccccc3)c3ncc(-c4c(C)noc4C)cc32)c(OC)c1` [P-0219, methyl 4-(6-(3,5-dimethylisoxazol-4-yl)-3-phenyl-1H-pyrrolo[3,2-b]pyridin-1-yl)-3,5-dimethoxybenzoate], the IC50 fell in the range of 0.1 to 1000 nM.
In the case of `COc1cc(C(=O)O)cc(OC)c1-n1cc(-c2ccccc2)c2ncc(-c3c(C)noc3C)cc21` [P-0220, 4-(6-(3,5-dimethylisoxazol-4-yl)-3-phenyl-1H-pyrrolo[3,2-b]pyridin-1-yl)-3,5-dimethoxybenzoic acid], the IC50 is 0.1 to 1000 nM.
Regarding `COc1cccc(OC)c1-n1cc(-c2ccccc2)c2ncc(-c3c(C)noc3C)cc21` [P-0221, 4-(1-(2,6-dimethoxyphenyl)-3-phenyl-1H-pyrrolo[3,2-b]pyridin-6-yl)-3,5-dimethylisoxazole], the IC50 was 1000 to 8000 nM.
Then `CCOc1cc(C(=O)O)cc(OCC)c1-n1cc(-c2ccnc(F)c2)c2ncc(-c3c(C)noc3C)cc21` [P-0222, 4-(6-(3,5-dimethylisoxazol-4-yl)-3-(2-fluoropyridin-4-yl)-1H-pyrrolo[3,2-b]pyridin-1-yl)-3,5-diethoxybenzoic acid], with 0.1 to 1000 nM; and `Cc1noc(C)c1-c1cnc2c(c1)c(-c1ccc(C(=O)O)cc1OC(F)(F)F)cn2-c1ccccc1F` [P-0223, 4-(5-(3,5-dimethylisoxazol-4-yl)-1-(2-fluorophenyl)-1H-pyrrolo[2,3-b]pyridin-3-yl)-3-(trifluoromethoxy)benzoic acid], with 0.1 to 1000 nM; and `CCOc1cccc(Cl)c1-n1cc(-c2ccccc2)c2ncc(-c3c(C)noc3C)cc21` [P-0224, 4-(1-(2-chloro-6-ethoxyphenyl)-3-phenyl-1H-pyrrolo[3,2-b]pyridin-6-yl)-3,5-dimethylisoxazole], with 1000 to 8000 nM.
Then `CCOc1ccc(C(=O)O)cc1-n1cc(-c2ccccc2)c2ncc(-c3c(C)noc3C)cc21` [P-0225, 3-(6-(3,5-dimethylisoxazol-4-yl)-3-phenyl-1H-pyrrolo[3,2-b]pyridin-1-yl)-4-ethoxybenzoic acid], with 0.1 to 1000 nM.
Turning to `Cc1noc(C)c1-c1cnc2c(c1)c(-c1ccc(C(=O)O)cc1OC(F)(F)F)cn2C1CCOCC1` [P-0226, 4-(5-(3,5-dimethylisoxazol-4-yl)-1-(tetrahydro-2H-pyran-4-yl)-1H-pyrrolo[2,3-b]pyridin-3-yl)-3-(trifluoromethoxy)benzoic acid], the IC50 lay within 0.1 to 1000 nM.
Then `Cc1noc(C)c1-c1cnc2c(c1)c(-c1ccc(C(=O)O)cc1OC(F)(F)F)cn2C1CCC(F)(F)CC1` [P-0227, 4-(1-(4,4-difluorocyclohexyl)-5-(3,5-dimethylisoxazol-4-yl)-1H-pyrrolo[2,3-b]pyridin-3-yl)-3-(trifluoromethoxy)benzoic acid], with 0.1 to 1000 nM.
With `Cc1noc(C)c1-c1cnc2c(c1)c(-c1ccc(C(=O)O)cc1OC(F)(F)F)c(C)n2-c1ccccn1` [P-0228, 4-(5-(3,5-dimethylisoxazol-4-yl)-2-methyl-1-(pyridin-2-yl)-1H-pyrrolo[2,3-b]pyridin-3-yl)-3-(trifluoromethoxy)benzoic acid] the figure was 0.1 to 1000 nM; with `Cc1noc(C)c1-c1cnc2c(-c3ccc(F)cc3F)cn(-c3ccc(C(=O)O)cc3OC(F)(F)F)c2c1` [P-0229, 4-(3-(2,4-difluorophenyl)-6-(3,5-dimethylisoxazol-4-yl)-1H-pyrrolo[3,2-b]pyridin-1-yl)-3-(trifluoromethoxy)benzoic acid], 0.1 to 1000 nM.
With `Cc1noc(C)c1-c1cnc2c(c1)c(-c1c(F)cc(C(=O)O)cc1OC(F)(F)F)cn2C(C1CC1)C1CC1` [P-0230, 4-(1-(dicyclopropylmethyl)-5-(3,5-dimethylisoxazol-4-yl)-1H-pyrrolo[2,3-b]pyridin-3-yl)-3-fluoro-5-(trifluoromethoxy)benzoic acid] the figure was 0.1 to 1000 nM.
For the molecule `Cc1ccccc1-n1cc(-c2ccc(C(=O)O)cc2OC(F)(F)F)c2cc(-c3c(C)noc3C)cnc21` [P-0231, 4-(5-(3,5-dimethylisoxazol-4-yl)-1-(o-tolyl)-1H-pyrrolo[2,3-b]pyridin-3-yl)-3-(trifluoromethoxy)benzoic acid], the half-maximal inhibitory concentration (IC50) is 0.1 to 1000 nM.
Then `Cc1noc(C)c1-c1cnc2c(c1)c(-c1ccc(C(=O)O)cc1OC(F)(F)F)cn2-c1ccc(F)cc1F` [P-0232, 4-(1-(2,4-difluorophenyl)-5-(3,5-dimethylisoxazol-4-yl)-1H-pyrrolo[2,3-b]pyridin-3-yl)-3-(trifluoromethoxy)benzoic acid], with 0.1 to 1000 nM; and `Cc1noc(C)c1-c1cnc2c(c1)c(-c1ccc(C(=O)O)cc1OC(F)(F)F)cn2-c1cc(F)ccc1F` [P-0233, 4-(1-(2,5-difluorophenyl)-5-(3,5-dimethylisoxazol-4-yl)-1H-pyrrolo[2,3-b]pyridin-3-yl)-3-(trifluoromethoxy)benzoic acid], with 0.1 to 1000 nM.
Then `Cc1noc(C)c1-c1cnc2c(-c3ccc(C(=O)O)cc3F)c(C(F)(F)F)n([C@@H](C)c3ccccn3)c2c1` [P-0234, (S)-4-(6-(3,5-dimethylisoxazol-4-yl)-1-(1-(pyridin-2-yl)ethyl)-2-(trifluoromethyl)-1H-pyrrolo[3,2-b]pyridin-3-yl)-3-fluorobenzoic acid], with 0.1 to 1000 nM; and `Cc1cc(C(=O)O)ccc1-c1c(C(F)(F)F)n([C@@H](C)c2ccccn2)c2cc(-c3c(C)noc3C)cnc12` [P-0235, (S)-4-(6-(3,5-dimethylisoxazol-4-yl)-1-(1-(pyridin-2-yl)ethyl)-2-(trifluoromethyl)-1H-pyrrolo[3,2-b]pyridin-3-yl)-3-methylbenzoic acid], with 0.1 to 1000 nM; and `COc1cc(C(=O)O)ccc1-c1c(C(F)(F)F)n([C@@H](C)c2ccccn2)c2cc(-c3c(C)noc3C)cnc12` [P-0236, (S)-4-(6-(3,5-dimethylisoxazol-4-yl)-1-(1-(pyridin-2-yl)ethyl)-2-(trifluoromethyl)-1H-pyrrolo[3,2-b]pyridin-3-yl)-3-methoxybenzoic acid], with 0.1 to 1000 nM.
